Assay results reported in patent US20080167277A1, “METHODS OF TREATING SKIN DISORDERS WITH CAFFEIC ACID ANALOGS” (priority 2006, published 2008).

Test system: psoriasis
Test: Topical dosage form of CAPE in petroleum jelly for treating psoriasis
Assay type: in vivo
Settings: 10.0 weight percent in petroleum jelly
Excerpt: In some embodiments, the topical dosage forms may contain 0.5 weight percent to 20.0 weight percent of the compounds described herein. […] The weight percent of the compounds described herein within the topical dosage forms may range from 1.0 weight percent to 15.0 weight percent or 5.0 weight percent to 11.0 weight percent. Treatment regimes with the topical dosage forms may occur daily, twice daily, three times daily or four times daily for durations, for example, of three weeks or four weeks or until symptoms are no longer present.

O=C(/C=C/c1ccc(O)c(O)c1)OCCc1ccccc1 [CAPE, caffeic acid phenethyl ester]
effectiveness for treating psoriasis: effective
